Calls of active or inactive are those of the source.
How the values were obtained:
[1] = target: Dual specificity tyrosine-phosphorylation-regulated kinase 1A (Rattus norvegicus, UniProt Q63470); assay type: biochemical, Homo sapiens
[2] = target: T1, DNA repair protein RAD52 homolog (Homo sapiens, UniProt P43351); assay type: functional, biochemical
T1 sequence (P43351 whole entry): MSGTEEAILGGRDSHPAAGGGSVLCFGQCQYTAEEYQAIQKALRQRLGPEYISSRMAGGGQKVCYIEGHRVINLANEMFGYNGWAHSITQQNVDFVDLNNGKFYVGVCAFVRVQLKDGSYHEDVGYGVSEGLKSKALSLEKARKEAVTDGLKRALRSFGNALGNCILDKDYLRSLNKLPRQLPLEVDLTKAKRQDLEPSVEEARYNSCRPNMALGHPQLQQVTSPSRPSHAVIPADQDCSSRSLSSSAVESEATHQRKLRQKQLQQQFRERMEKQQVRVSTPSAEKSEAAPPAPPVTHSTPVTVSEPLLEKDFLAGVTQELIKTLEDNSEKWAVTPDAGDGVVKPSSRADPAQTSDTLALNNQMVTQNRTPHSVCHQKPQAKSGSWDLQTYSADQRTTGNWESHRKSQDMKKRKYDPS

[3] = miR-122 activators in hepatoma reporter cells, dose response, cell-based, Huh7 psiCHECK-miR122, Renilla luciferase, cherry-picked (AID 651956); assay type: functional;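 also: huh7 hepatoma cells stably carrying a psiCHECK-2 miR-122 sensor plasmid; renilla luciferase signal reporting endogenous miR-122 activity after 48 h compound exposure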
[4] = target: Paired box protein Pax-8 (Homo sapiens, UniProt Q06710); assay: inhibitors of PAX8-driven TPO luciferase reporter, dose response, RMG-I cells, cherry-pick (AID 687027); assay type: functional, cell-based;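 also: luciferase reporter driven by Pax8 target thyroperoxidase promoter measured by SteadyGlo luminescence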
Chain of Paired box protein Pax-8 (Q06710 whole entry): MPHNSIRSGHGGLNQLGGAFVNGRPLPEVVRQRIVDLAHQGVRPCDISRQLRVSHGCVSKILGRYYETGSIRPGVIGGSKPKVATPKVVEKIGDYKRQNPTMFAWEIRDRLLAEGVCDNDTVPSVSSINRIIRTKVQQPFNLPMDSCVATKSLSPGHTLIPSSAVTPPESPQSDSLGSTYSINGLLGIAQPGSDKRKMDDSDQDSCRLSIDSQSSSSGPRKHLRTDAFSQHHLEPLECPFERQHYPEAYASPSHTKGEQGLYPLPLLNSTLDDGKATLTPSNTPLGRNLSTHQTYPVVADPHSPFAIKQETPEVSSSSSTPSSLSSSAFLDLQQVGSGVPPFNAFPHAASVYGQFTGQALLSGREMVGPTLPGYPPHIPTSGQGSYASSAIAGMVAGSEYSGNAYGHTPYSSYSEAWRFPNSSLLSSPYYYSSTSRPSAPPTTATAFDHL

[5] = inhibitors of intracellular T. cruzi replication, confirmation, NIH3T3 host cells, beta-gal luminescence (AID 2044); assay type: functional, cell-based;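 also: intracellular parasites grown in NIH/3T3 mouse fibroblasts as host cells; luminescent beta-galactosidase reporter signal from transgenic T. cruzi replicating inside host cells; inhibitors lower the luminescence signal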
[6] = THP-1 cell cytotoxicity, dose response, cytotoxicity control for Vif-APOBEC3G degradation inhibitor project, THP-1 cells (AID 1117359); assay type: functional; settings: Human immunodeficiency virus 1, THP-1
[7] = cytotoxicity toward NIH3T3 fibroblasts, dose response, counter-screen, cell-based, ATP luminescence, mouse fibroblasts (AID 2010); assay type: functional;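 also: cells exposed to compound for about 90 hours before reading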
[8] = system: HEK293; assay: cells; assay type: functional, cell-based; settings: Homo sapiens
[9] = system: HEK293; assay: cells; assay type: functional, cell-based; settings: Homo sapiens; remark: listed apart in the source
[10] = system: HEK293; assay: NOD1 signaling inhibitors, primary screen, cell-based, luminescence, uHTS (AID 1578); assay type: functional; settings: Homo sapiens
[11] = system: HEK293; assay: NOD2 signaling inhibitors in MDP-stimulated cells, cell-based, uHTS, luminescence (AID 2001); assay type: functional; settings: Homo sapiens

In the case of `Oc1ccnc2ccc(Cl)cc12`, the AC50 [1] is reported as 13.6 µM (active).
In the case of `Cc1nc(NC(=N)N)nc2ccccc12`, the AC50 [2] is reported as 13.7 µM (active).
With `C[C@@H]1CN([C@@H](C)CO)C(=O)Cc2cc(NS(=O)(=O)c3ccc(F)cc3)ccc2O[C@H]1CN(C)Cc1ccc(Oc2ccccc2)cc1` the AC50 [3] was 1.96 µM (active) and the AC50 [4] was 5.32 µM (active).
With `CCN1CCN(c2ccc(S(=O)(=O)N3CCCCC3)cc2NC(=O)Cc2ccc(Cl)c(Cl)c2)CC1` the EC50 [5] was 0.162 µM (active), the CC50 [6] was 21.2 µM (active) and the EC50 [7] was 6.52 µM (active).
In the case of `CCOc1ccc(C(=O)/C=C/c2cc(OC)c(OC)c(OC)c2)cc1`, the IC50 [8] is reported as 5.97 µM (active), the IC50 [9] is reported as 14.7 µM (active) and the EC50 [10] is reported as 11.5 µM (active). For the same compound, the IC50 [11] was 5.02 µM (active).

Source: ChEMBL document CHEMBL1201862, “PubChem BioAssay data set” (2004)
